PubChem BioAssay AID248 (DTP/NCI, 2004)
Where “and” joins values, the source holds several entries; their conditions need not be identical. Equal values may be shown once. Toxic doses and inconclusive results are not listed. Rule as the data show it: active = T/C of 150% or more; inactive = T/C below 125%.

Tested on: L1210 leukemia ip in BDF1 mice, survival T/C
Experiment: NCI In Vivo Anticancer Drug Screen. Data for tumor model L1210 Leukemia (intraperitoneal) in B6D2F1 (BDF1) mice
Conditions: endpoint: mean survival time, higher = longer survival
Summary of the method: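 Antitumor effect is assessed in tumor-bearing animals. Survival in the compound arm is compared with a vehicle-dosed control arm and expressed as their quotient.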

[1] = dose: 400.0 mg/kg/injection, schedule: Q01DX001 (ip), vehicle: carboxymethylcellulose (CMC)
[2] = dose: 100.0 mg/kg/injection, schedule: Q01DX001 (ip), vehicle: saline
[3] = dose: 200.0 mg/kg/injection, schedule: Q01DX001 (ip), vehicle: saline
[4] = dose: 400.0 mg/kg/injection, schedule: Q01DX001 (ip), vehicle: saline
[5] = dose: 100.0 mg/kg/injection, schedule: Q04DX003 (ip), vehicle: saline
[6] = dose: 200.0 mg/kg/injection, schedule: Q04DX003 (ip), vehicle: saline
[7] = dose: 400.0 mg/kg/injection, schedule: Q04DX003 (ip), vehicle: saline
[8] = dose: 100.0 mg/kg/injection, schedule: Q01DX009 (ip), vehicle: saline with Tween-80
[9] = dose: 100.0 mg/kg/injection, schedule: Q01DX009 (ip), vehicle: Klucel (hydroxypropylcellulose) (HPC)
[10] = dose: 100.0 mg/kg/injection, schedule: Q04DX003 (ip), vehicle: Klucel (hydroxypropylcellulose) (HPC)
[11] = dose: 200.0 mg/kg/injection, schedule: Q01DX009 (ip), vehicle: Klucel (hydroxypropylcellulose) (HPC)
[12] = dose: 200.0 mg/kg/injection, schedule: Q04DX003 (ip), vehicle: Klucel (hydroxypropylcellulose) (HPC)
[13] = dose: 400.0 mg/kg/injection, schedule: Q01DX009 (ip), vehicle: Klucel (hydroxypropylcellulose) (HPC)
[14] = dose: 100.0 mg/kg/injection, schedule: Q04DX002 (ip), vehicle: Klucel (hydroxypropylcellulose) (HPC)
[15] = dose: 200.0 mg/kg/injection, schedule: Q04DX002 (ip), vehicle: Klucel (hydroxypropylcellulose) (HPC)
[16] = dose: 400.0 mg/kg/injection, schedule: Q04DX002 (ip), vehicle: Klucel (hydroxypropylcellulose) (HPC)
[17] = dose: 100.0 mg/kg/injection, schedule: Q04DX003 (ip), vehicle: gum acacia
[18] = dose: 400.0 mg/kg/injection, schedule: Q04DX003 (ip), vehicle: gum acacia

Measured: T/C

CN=C(N)Nc1ccc(C(=O)O)cc1
inactive: dose: 100.0 mg/kg/injection, schedule: Q01DX009 (ip), vehicle: water 102 % of control | dose: 100.0 mg/kg/injection, schedule: Q04DX003 (ip), vehicle: water 106 % of control | dose: 200.0 mg/kg/injection, schedule: Q01DX009 (ip), vehicle: water 107 % of control | dose: 200.0 mg/kg/injection, schedule: Q04DX003 (ip), vehicle: water 89 % of control | dose: 400.0 mg/kg/injection, schedule: Q01DX009 (ip), vehicle: water 106 % of control | dose: 400.0 mg/kg/injection, schedule: Q04DX003 (ip), vehicle: water 91 % of control

O=NN(CCO)C(=O)Nc1c[nH]c(=O)[nH]c1=O
active: [1] 190 % of control
inactive: dose: 12.5 mg/kg/injection, schedule: Q01DX001 (ip), vehicle: carboxymethylcellulose (CMC) 118 % of control | dose: 25.0 mg/kg/injection, schedule: Q01DX001 (ip), vehicle: carboxymethylcellulose (CMC) 118 % of control | dose: 50.0 mg/kg/injection, schedule: Q01DX001 (ip), vehicle: carboxymethylcellulose (CMC) 122 % of control

ClCCN(CCCl)c1ccc(C=Nc2ccc(-c3csc(-c4ccccc4)n3)c(Cl)c2)cc1
inactive: dose: 100.0 mg/kg/injection, schedule: Q01DX001 (sc), vehicle: carboxymethylcellulose (CMC) 94 % of control | dose: 200.0 mg/kg/injection, schedule: Q01DX001 (sc), vehicle: carboxymethylcellulose (CMC) 97 % of control | dose: 400.0 mg/kg/injection, schedule: Q01DX001 (sc), vehicle: carboxymethylcellulose (CMC) 103 % of control

CCCCCCCCCCCCCCCCOc1ccc(NC(N)=S)cc1
inactive: dose: 75.0 mg/kg/injection, schedule: Q04DX003 (ip), vehicle: Klucel (hydroxypropylcellulose) (HPC) 101 % of control | dose: 100.0 mg/kg/injection, schedule: Q01DX001 (ip), vehicle: Klucel (hydroxypropylcellulose) (HPC) 96 % of control | dose: 150.0 mg/kg/injection, schedule: Q04DX003 (ip), vehicle: Klucel (hydroxypropylcellulose) (HPC) 88 % of control | dose: 200.0 mg/kg/injection, schedule: Q01DX001 (ip), vehicle: Klucel (hydroxypropylcellulose) (HPC) 97 % of control | dose: 300.0 mg/kg/injection, schedule: Q04DX003 (ip), vehicle: Klucel (hydroxypropylcellulose) (HPC) 89 % of control | dose: 400.0 mg/kg/injection, schedule: Q01DX001 (ip), vehicle: Klucel (hydroxypropylcellulose) (HPC) 93 % of control

CCOC(=O)C(C(C)=O)C(CCCCO)C(C(C)=O)C(=O)OCC (stereo unspecified)
inactive: [2] 97 % of control | [3] 101 % of control | [4] 94 % of control

OCCSC1=NCCN1
inactive: dose: 100.0 mg/kg/injection, schedule: Q01DX001 (ip), vehicle: carboxymethylcellulose (CMC) 97 % of control | [5] 109 % of control | dose: 200.0 mg/kg/injection, schedule: Q01DX001 (ip), vehicle: carboxymethylcellulose (CMC) 100 % of control | [6] 103 % of control | [1] 94 % of control

COc1ccc(C(C)=O)c(O)c1OC
inactive: [2] 101 % of control | [3] 101 % of control | [4] 98 % of control

CC1(CS(=O)(=O)c2ccccc2)C(=O)C2CCC1C2 (stereo unspecified)
inactive: [2] 90 % of control | [5] 94 % of control | [3] 98 % of control | [6] 89 % of control | [4] 88 % of control | [7] 98 % of control

CCN(CC)S(=O)(=O)c1cccc([N+](=O)[O-])c1
inactive: [8] 99 % of control

Cc1ccc([N+](=O)[O-])cc1N1CCNC1=O
inactive: [9] 104 % of control | [10] 102 % of control | [11] 102 % of control | [12] 98 % of control | [13] 100 % of control | dose: 400.0 mg/kg/injection, schedule: Q04DX003 (ip), vehicle: Klucel (hydroxypropylcellulose) (HPC) 101 % of control

Cc1ccc([N+](=O)[O-])cc1NC(=O)N(Cc1ccccc1)Cc1ccccc1
inactive: [14] 95 % of control | [15] 100 % of control | [16] 106 % of control

COc1ccc(C(=O)NO)cc1
inactive: dose: 100.0 mg/kg/injection, schedule: Q01DX009 (ip), vehicle: carboxymethylcellulose (CMC) 96 % of control | dose: 200.0 mg/kg/injection, schedule: Q01DX009 (ip), vehicle: carboxymethylcellulose (CMC) 102 % of control | dose: 400.0 mg/kg/injection, schedule: Q01DX009 (ip), vehicle: carboxymethylcellulose (CMC) 101 % of control

CC(C)N(C(C)C)C(C)CCNc1c2ccccc2nc2cc(Cl)ccc12 (stereo unspecified)
inactive: dose: 1.88 mg/kg/injection, schedule: Q01DX Z (ip), vehicle: methylcellulose (MC) 113 % of control | dose: 3.0 mg/kg/injection, schedule: Q01DX Z (ip), vehicle: methylcellulose (MC) 117 % of control | dose: 3.75 mg/kg/injection, schedule: Q01DX Z (ip), vehicle: methylcellulose (MC) 115 % of control | dose: 5.0 mg/kg/injection, schedule: Q01DX Z (ip), vehicle: methylcellulose (MC) 116 % of control | dose: 6.0 mg/kg/injection, schedule: Q04DX003 (ip), vehicle: saline 98 % of control | dose: 7.5 mg/kg/injection, schedule: Q01DX Z (ip), vehicle: methylcellulose (MC) 110 % of control | dose: 12.0 mg/kg/injection, schedule: Q04DX003 (ip), vehicle: saline 102 % of control | dose: 15.0 mg/kg/injection, schedule: Q01DX Z (ip), vehicle: methylcellulose (MC) 109 % of control | dose: 24.0 mg/kg/injection, schedule: Q04DX003 (ip), vehicle: saline 105 % of control

O=C(O)c1ccccc1SCc1cc(=O)[nH]c(=O)[nH]1
inactive: dose: 100.0 mg/kg/injection, schedule: Q04DX003 (ip), vehicle: saline with Tween-80 102 % of control | dose: 200.0 mg/kg/injection, schedule: Q04DX003 (ip), vehicle: saline with Tween-80 102 % of control | dose: 400.0 mg/kg/injection, schedule: Q04DX003 (ip), vehicle: saline with Tween-80 98 % of control

COc1cc(C=O)ccc1OC(=O)Nc1ccc(Cl)cc1C(F)(F)F
inactive: dose: 50.0 mg/kg/injection, schedule: Q01DX009 (ip), vehicle: saline with Tween-80 89 % of control | [8] 100 % of control | dose: 200.0 mg/kg/injection, schedule: Q01DX009 (ip), vehicle: saline with Tween-80 96 % of control

CCCCCCCCCCCCCCCCN(C)S(=O)(=O)c1ccc(N2CCOCC2)c(N)c1
inactive: [17] 88 % of control | dose: 200.0 mg/kg/injection, schedule: Q04DX003 (ip), vehicle: gum acacia 93 % of control | [18] 86 % of control

O=C(O)c1ccc(SCc2ccccc2)cc1
inactive: [9] 103 % of control | [11] 101 % of control | [13] 93 % of control

O=C(NCCCN1CC1)C(=O)Nc1ccccc1
inactive: dose: 12.5 mg/kg/injection, schedule: Q04DX003 (ip), vehicle: Klucel (hydroxypropylcellulose) (HPC) 92 % of control | dose: 25.0 mg/kg/injection, schedule: Q04DX003 (ip), vehicle: Klucel (hydroxypropylcellulose) (HPC) 101 % of control

COc1ccc(C(O)c2cc3ccccc3n2S(=O)(=O)c2ccccc2)cc1 (stereo unspecified)
inactive: [14] 95 % of control | [15] 106 % of control | [16] 98 % of control

C=CC(C)(C)C(=C)C
inactive: [5] 110 % of control | [6] 108 % of control | [7] 101 % of control

O=[N+]([O-])/C=C\c1ccc2c(c1)OCO2
inactive: dose: 25.0 mg/kg/injection, schedule: Q01DX009 (ip), vehicle: Klucel (hydroxypropylcellulose) (HPC) 87 % of control and 103 % of control | dose: 50.0 mg/kg/injection, schedule: Q01DX009 (ip), vehicle: Klucel (hydroxypropylcellulose) (HPC) 89 % of control and 100 % of control | [2] 106 % of control | [9] 103 % of control | [10] 102 % of control | [3] 119 % of control | [12] 97 % of control | [4] 97 % of control

COc1ccc(C2NC(=O)N3C(c4ccc(OC)cc4)NC(=O)N23)cc1 (stereo unspecified)
inactive: dose: 100.0 mg/kg/injection, schedule: Q01DX009 (ip), vehicle: gum acacia 105 % of control | [17] 97 % of control | dose: 200.0 mg/kg/injection, schedule: Q01DX009 (ip), vehicle: gum acacia 89 % of control | dose: 400.0 mg/kg/injection, schedule: Q01DX009 (ip), vehicle: gum acacia 93 % of control | [18] 94 % of control
